By IC50 is commonly meant the concentration that inhibits the measured activity by half. The term CC50 denotes the concentration at which the toxic effect on the cells reaches its halfway point.

Series [1] concerns Leishmania major. Description: Antileishmanial activity against Leishmania major promastigotes incubated for 24 hrs measured by alamar blue staining based fluorescence analysis. The class given is functional, organism-based. A general note: Alamar Blue is a resazurin reagent that responds to reducing activity.
The test system of series [2] is Leishmania major. Kind of series: Antileishmanial activity against Leishmania major amastigotes incubated for 24 hrs measured by alamar blue staining based fluorescence analysis. It counts as functional, organism-based.
Series [3] deals with Leishmania major. Kind of series: Potency index, ratio of iC50 for miltefosine IC50 to test compound IC50 for antileishmanial activity against Leishmania major promastigotes. It counts as functional.
Series [4] deals with Leishmania major. Description: Reversal of antileishmanial activity against Leishmania major promastigotes assessed as parasite survival at IC50 preincubated with 20 uM folic acid for 1 hr followed by compound incubated for 48 hrs (reference value: 24%). The class given is functional.
In series [5] the test system is Leishmania major. Description: Reversal of antileishmanial activity against Leishmania major promastigotes assessed as parasite survival at IC50 preincubated with 100 uM folic acid for 1 hr followed by compound incubated for 48 hrs (reference value: 24%). The class given is functional.
Series [6] has as its system Leishmania major. Kind of series: Reversal of antileishmanial activity against Leishmania major promastigotes assessed as parasite survival at IC50 preincubated with 20 uM folinic acid for 1 hr followed by compound incubated for 48 hrs (reference value: 24%). It counts as functional.
For series [7], the system named is Leishmania major. Kind of series: Reversal of antileishmanial activity against Leishmania major promastigotes assessed as parasite survival at IC50 preincubated with 100 uM folinic acid for 1 hr followed by compound incubated for 48 hrs (reference value: 24%). The class given is functional.
The nature of series [8]: Cytotoxicity against green monkey Vero cells incubated for 72 hrs by crystal violet staining analysis. The class given is toxicity, cell-based. To be noted: chlorocebus sabaeus.
Series [9] is described as follows: Selectivity index, ratio of CC50 for green monkey Vero cells to IC50 for antileishmanial activity against Leishmania major amastigotes. The class given is toxicity, cell-based. To be noted: read-out: Ratio CC50/IC50.
For series [10], the system named is Leishmania major. Description: Antileishmanial activity against Leishmania major amastigotes incubated for 24 hrs measured by alamar blue staining based fluorescence analysis relative to control. It counts as functional.
The subject of series [11] is Leishmania major. Kind of series: Antileishmanial activity against Leishmania major promastigotes incubated for 24 hrs measured by alamar blue staining based fluorescence analysis relative to control. It counts as functional.
In series [12] the test system is Leishmania major. Description: Potency index, ratio of IC50 for miltefosine IC50 to test compound IC50 for antileishmanial activity against Leishmania major amastigotes. It counts as functional.
The test system of series [13] is Leishmania major. Description: Reversal of antileishmanial activity against Leishmania major promastigotes assessed as parasite survival at IC50 preincubated with 20 uM folic acid for 1 hr followed by compound incubated for 48 hrs (reference value: 22%). The class given is functional.
Series [14] deals with Leishmania major. Kind of series: Reversal of antileishmanial activity against Leishmania major promastigotes assessed as parasite survival at IC50 preincubated with 100 uM folic acid for 1 hr followed by compound incubated for 48 hrs (reference value: 22%). It counts as functional.
For series [15], the system named is Leishmania major. Kind of series: Reversal of antileishmanial activity against Leishmania major promastigotes assessed as parasite survival at IC50 preincubated with 20 uM folinic acid for 1 hr followed by compound incubated for 48 hrs (reference value: 22%). It counts as functional.
The test system of series [16] is Leishmania major. Kind of series: Reversal of antileishmanial activity against Leishmania major promastigotes assessed as parasite survival at IC50 preincubated with 100 uM folinic acid for 1 hr followed by compound incubated for 48 hrs (reference value: 22%). The class given is functional.
Series [17] concerns Leishmania major. Kind of series: Reversal of antileishmanial activity against Leishmania major promastigotes assessed as parasite survival at IC50 preincubated with 20 uM folic acid for 1 hr followed by compound incubated for 48 hrs (reference value: 20%). It counts as functional.
Series [18] deals with Leishmania major. Description: Reversal of antileishmanial activity against Leishmania major promastigotes assessed as parasite survival at IC50 preincubated with 100 uM folic acid for 1 hr followed by compound incubated for 48 hrs (reference value: 20%). It counts as functional.
Series [19] relates to Leishmania major. Kind of series: Reversal of antileishmanial activity against Leishmania major promastigotes assessed as parasite survival at IC50 preincubated with 20 uM folinic acid for 1 hr followed by compound incubated for 48 hrs (reference value: 20%). It counts as functional.
For series [20], the system named is Leishmania major. Kind of series: Reversal of antileishmanial activity against Leishmania major promastigotes assessed as parasite survival at IC50 preincubated with 100 uM folinic acid for 1 hr followed by compound incubated for 48 hrs (reference value: 20%). It counts as functional.
Series [21] concerns Leishmania tropica. Description: Antileishmanial activity against Leishmania tropica promastigotes incubated for 24 hrs measured by alamar blue staining based fluorescence analysis. It counts as functional, organism-based.
Series [22] deals with Leishmania tropica. Description: Antileishmanial activity against Leishmania tropica amastigotes incubated for 24 hrs measured by alamar blue staining based fluorescence analysis. The class given is functional, organism-based.

In the case of `CCCCOc1ccc2cc(/C(C)=N/OCCCCCCn3cc(CN4CCCCC4)nn3)c(=O)oc2c1`, the values for the half-inhibitory concentration (IC50) in the series with Leishmania major [1] and in the series on Leishmania major [2] were 3.87 µM and 4.47 µM, respectively. Moreover, the “Ratio IC50” value with Leishmania major [3] is recorded as 2.
Regarding `CCCCOc1ccc2cc(C(=O)NCCCCCCn3cc(CN4CCCC4)nn3)c(=O)oc2c1`, the IC50 in the series on Leishmania major [1] turned out to be 0.59 µM; in the series with Leishmania major [2] it was 0.81 µM. In the series with Leishmania major [3], the “Ratio IC50” value turned out to be 13. Moreover, the Activity in the series on Leishmania major [4] came out at 76%; in the series with Leishmania major [5], 84%; in the series with Leishmania major [6], 83%; with Leishmania major [7], 94%. The molecule also yielded a CC50 at 72 h in [8] of 252 µM. The selectivity ratio in [9] was found to be 311.
Take `CCCCOc1ccc2cc(C(=O)NCCCCCCn3cc(CN4C(=O)CSC4=O)nn3)c(=O)oc2c1`: the IC50 with Leishmania major [1] is 2.27 µM; with Leishmania major [2] it was 3.88 µM. Further, the “Ratio IC50” value in the series with Leishmania major [3] was found to be 3. In addition, the values for the Activity in the series with Leishmania major [10] and in the series on Leishmania major [11] were 48% and 30%, respectively.
As for `CCCCOc1ccc2cc(/C(C)=N/OCCCCCCn3cc(CN4CCCC4)nn3)c(=O)oc2c1`, the IC50 in the series with Leishmania major [1] worked out at 0.78 µM; in the series with Leishmania major [2] it was 0.99 µM. In addition, the “Ratio IC50” value in the series on Leishmania major [3] was 10; in the series on Leishmania major [12] it was 8. Besides, the Activity in the series on Leishmania major [13] was found to be 74%; in the series with Leishmania major [14], 81%; in the series with Leishmania major [15], 79%; in the series on Leishmania major [16], 87%. Moreover, it took 490 µM to reach half-maximal cytotoxicity in [8] (CC50 at 72 h). Further, in series [9], the selectivity ratio came out at 496.
Turning to `CCCCOc1ccc2cc(C(=O)NCCCCCCn3cc(CN4CCOCC4)nn3)c(=O)oc2c1`, the values for the IC50 in the series on Leishmania major [1] and with Leishmania major [2] were 0.4 µM and 0.68 µM, respectively. The “Ratio IC50” value in the series with Leishmania major [3] is recorded as 20. Further, the Activity in the series with Leishmania major [17] was found to be 82%; in the series on Leishmania major [18], 91%; with Leishmania major [19], 88%; in the series on Leishmania major [20], 91%. This molecule also had a CC50 at 72 h in series [8] of 244 µM. Besides, in series [9], the selectivity ratio came out at 359.
Turning to `CCCCOc1ccc2cc(C(=O)NCCCCCCn3cc(CSC4=NC(=O)CS4)nn3)c(=O)oc2c1`, the IC50 in the series with Leishmania major [1] is 2.35 µM; with Leishmania major [2], 3.86 µM. In addition, the “Ratio IC50” value in the series on Leishmania major [3] is 3. Also, the figures for the Activity with Leishmania major [10] and in the series with Leishmania major [11] were 48% and 30%, respectively.
As for `CCCCOc1ccc2cc(/C(C)=N/OCCCCCCn3cc(CSC4=NC(=O)CS4)nn3)c(=O)oc2c1`, the IC50 with Leishmania major [1] is 3.73 µM; in the series on Leishmania major [2], 4.84 µM. In the series on Leishmania major [3], the “Ratio IC50” value is given as 2.
Regarding `O=C(N/N=C1\C(=O)N(CC(O)COc2cc(=O)oc3ccccc23)c2ccccc21)c1ccncc1` (stereo not given), the results for the half-inhibitory concentration (IC50) with Leishmania tropica [21] and with Leishmania tropica [22] were 0.1 µM and 0.87 µM, respectively.
For `CCCCOc1ccc2cc(C(=O)NCCCCCCn3cc(CN4CCCCC4)nn3)c(=O)oc2c1`, the IC50 is 1.21 µM in the series on Leishmania major [1] and 1.83 µM in the series with Leishmania major [2]. Also, the “Ratio IC50” value in the series with Leishmania major [3] is 7.
In the same order, the values of `CCCCOc1ccc2cc(/C(C)=N/OCCCCCCn3cc(CN4C(=O)CSC4=O)nn3)c(=O)oc2c1` are 2.83 µM, 3.9 µM and 3.
As to `CCCCOc1ccc2cc(/C(C)=N/OCCCCCCn3cc(CN4CCOCC4)nn3)c(=O)oc2c1`, the IC50 was 4.63 µM in the series with Leishmania major [1] and 5.29 µM in the series on Leishmania major [2]. For the same molecule, the “Ratio IC50” value in the series with Leishmania major [3] was 2.

These data come from ChEMBL document CHEMBL5360567, “Modulating leishmanial pteridine metabolism machinery via some new coumarin-1,2,3-triazoles: Design, synthesis and computational studies” (Eur J Med Chem, 2023).
